Values quoted from earlier work as cited in patent US8884000B2 (priority 2010, dated 2014).

Molecular target: saporin-L1 (Saponaria officinalis, UniProt Q2QEH4)
Details: pH 7.8

saporin-L1, sequence (Q2QEH4 22-280 limits assumed): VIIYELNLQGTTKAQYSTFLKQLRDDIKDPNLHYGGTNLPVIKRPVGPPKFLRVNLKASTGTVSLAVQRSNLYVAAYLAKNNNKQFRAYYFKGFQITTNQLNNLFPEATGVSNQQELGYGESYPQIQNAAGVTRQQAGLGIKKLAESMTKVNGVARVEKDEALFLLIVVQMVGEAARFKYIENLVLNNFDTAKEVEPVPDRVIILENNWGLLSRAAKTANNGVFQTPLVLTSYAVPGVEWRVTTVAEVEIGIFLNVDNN

In the case of poly(A), the Km is listed as 639 ± 32 µM and the kcat is listed as 1.02 ± 0.017 s⁻¹.
